{"source": "patent US8778881B2", "about": "(priority 2004, dated 2014)", "note": "Numbered stars: 1 amine (or outer) side, 2 acyl side, 3 side chain; on linkers, the order of the positions; unused ones are H or OH. Bridge positions count the residues as written; N and C are the ends. Square brackets hold non-standard residues; d marks the D form. Peptide text beside a SMILES is read from it. * marks the point of attachment. Orn(Me) = CN(CCC[C@H](N[*:1])C(=O)[*:2])[*:3]; Ala(4-thiazolyl) = N[C@@H](Cc1cscn1)C(=O)O; Orn(iPr) = CC(C)NCCC[C@H](N)C(=O)O; Dab(iPr) = CC(C)NCC[C@H](N)C(=O)O; 3Pal = N[C@@H](Cc1cccnc1)C(=O)O; 2Thi = N[C@@H](Cc1cccs1)C(=O)O; 3Thi = N[C@@H](Cc1ccsc1)C(=O)O; Aad = N[C@@H](CCCC(=O)O)C(=O)O; NHCH(CH2OH)2 = OCC(CO)N*; Orn = NCCC[C@H](N)C(=O)O; Dab = NCC[C@H](N)C(=O)O; NHiBu = CC(C)CN*; X4 = OCCOCCN*"}
{"target": "T1, human oxytocin (hOT) receptor (Homo sapiens, UniProt P30559)", "T1 construct": "expressed in transfected cells", "T1 sequence (P30559 1-389)": "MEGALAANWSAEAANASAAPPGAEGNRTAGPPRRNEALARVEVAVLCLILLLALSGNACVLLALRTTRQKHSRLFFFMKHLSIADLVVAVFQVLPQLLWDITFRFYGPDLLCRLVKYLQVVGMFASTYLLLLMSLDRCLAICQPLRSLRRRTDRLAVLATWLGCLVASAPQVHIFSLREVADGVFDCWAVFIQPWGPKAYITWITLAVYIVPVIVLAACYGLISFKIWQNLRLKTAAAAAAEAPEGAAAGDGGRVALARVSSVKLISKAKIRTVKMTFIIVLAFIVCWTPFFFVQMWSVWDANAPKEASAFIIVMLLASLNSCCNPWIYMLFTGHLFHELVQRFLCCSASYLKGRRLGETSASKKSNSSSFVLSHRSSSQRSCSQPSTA", "assay": "luciferase-based transcriptional reporter assay expressing the human oxytocin (hOT) receptor, for selectivity", "format": "cell-based", "conditions": "not given", "procedure": "(§1) Agonist activity of compounds on the hV1a receptor was determined in a transcriptional reporter assay by transiently transfecting a hV1a receptor expression DNA into HEK-293 cells in concert with a reporter DNA containing intracellular calcium responsive promoter elements regulating expression of firefly luciferase. See Boss, V., Talpade, D. J., Murphy, T. J. J. Biol. Chem. 1996, May 3; 271(18), 10429-10432 for further guidance on this assay. […] To determine selectivity, compounds were tested in luciferase-based transcriptional reporter assays expressing the human oxytocin (hOT) receptor. Assays for other receptors (hV2, hV1b, rat V1a and rat V2) were also conducted.\n(§2) The EC50 value given is the geometric mean expressed in nanomol/L (nM). Selectivity values are given as EC50 ratios."}
{"compound": "CC[C@H](C)[C@@H]1NC(=O)[C@H](Cc2ccccc2)NC(=O)[C@@H](N)CSSC[C@@H](C(=O)N2CCC[C@H]2C(=O)N[C@@H](CCCN)C(=O)NCC(N)=O)NC(=O)[C@H](CC(N)=O)NC(=O)[C@H](CCCC(N)=O)NC1=O", "note": "[Compound 9] (H-CFI[Aad](NH2)NCP[Orn]G-NH2; disulfide 1-6)", "selectivity hOT/hV1a (class symbol)": "+ (key: +: selective hV1a receptor agonist; EC50 hOT/hV1a ratio not determined due to very low agonist efficacy (<30% compared to AVP) at the hOT receptor)"}
{"target": "T1, human oxytocin (hOT) receptor", "assay": "luciferase-based transcriptional reporter assay expressing the human oxytocin (hOT) receptor, for selectivity", "format": "cell-based", "conditions": "agonist efficacy at the hOT receptor compared to AVP; ratio not determined", "procedure": "as §1, §2"}
{"compound": "CC[C@H](C)[C@@H]1NC(=O)[C@H](Cc2ccsc2)NC(=O)[C@@H](N)CSSC[C@@H](C(=O)N2CCC[C@H]2C(=O)N[C@@H](CCCN)C(=O)NCC(N)=O)NC(=O)[C@H](CC(N)=O)NC(=O)[C@H](CC(N)=O)NC1=O", "note": "[Compound 35] (H-C[3Thi]INNCP[Orn]G-NH2; disulfide 1-6; N-terminus and C-terminus assumed)", "selectivity hOT/hV1a (class symbol)": "+ (selective hV1a receptor agonist; EC50 hOT/hV1a ratio not determined due to very low agonist efficacy (<30% compared to AVP) at the hOT receptor)"}
{"compound": "CC[C@H](C)[C@@H]1NC(=O)[C@H](Cc2ccccc2)NC(=O)[C@@H](N)CSSC[C@@H](C(=O)N2CCC[C@H]2C(=O)N[C@@H](CCNC(C)C)C(=O)NCC(N)=O)NC(=O)[C@H](CC(N)=O)NC(=O)[C@H](CCCC(N)=O)NC1=O", "note": "[Compound 22] (H-CFI[Aad](NH2)NCP[Dab(iPr)]G-NH2; disulfide 1-6; N-terminus and C-terminus assumed)", "selectivity hOT/hV1a (class symbol)": "+ (selective hV1a receptor agonist; EC50 hOT/hV1a ratio not determined due to very low agonist efficacy (<30% compared to AVP) at the hOT receptor)"}
{"compound": "CC[C@H](C)[C@@H]1NC(=O)[C@H](Cc2cccs2)NC(=O)[C@@H](N)CSSC[C@@H](C(=O)N2CCC[C@H]2C(=O)N[C@@H](CCCNC(C)C)C(=O)NCC(N)=O)NC(=O)[C@H](CC(N)=O)NC(=O)[C@H](CC(N)=O)NC1=O", "note": "[Compound 43] (H-C[2Thi]INNCP[Orn(iPr)]G-NH2; disulfide 1-6; N-terminus and C-terminus assumed)", "selectivity hOT/hV1a (class symbol)": "+ (selective hV1a receptor agonist; EC50 hOT/hV1a ratio not determined due to very low agonist efficacy (<30% compared to AVP) at the hOT receptor)"}
{"compound": "CC[C@H](C)[C@@H]1NC(=O)[C@H](Cc2ccccc2)NC(=O)[C@@H](N)CSSC[C@@H](C(=O)N2CCC[C@H]2C(=O)N[C@@H](CCN)C(=O)NCC(N)=O)NC(=O)[C@H](CC(N)=O)NC(=O)[C@H](CC(=O)NC)NC1=O", "note": "[Compound 31] (H-CFID(NHMe)NCP[Dab]G-NH2; disulfide 1-6; N-terminus and C-terminus assumed)", "selectivity hOT/hV1a (class symbol)": "+ (selective hV1a receptor agonist; EC50 hOT/hV1a ratio not determined due to very low agonist efficacy (<30% compared to AVP) at the hOT receptor)"}
{"compound": "CC[C@H](C)[C@@H]1NC(=O)[C@H](Cc2cscn2)NC(=O)[C@@H](N)CSSC[C@@H](C(=O)N2CCC[C@H]2C(=O)N[C@@H](CCN)C(=O)NCC(N)=O)NC(=O)[C@H](CC(N)=O)NC(=O)[C@H](CCC(N)=O)NC1=O", "note": "[Compound 13] (H-C[Ala(4-thiazolyl)]IQNCP[Dab]G-NH2; disulfide 1-6; N-terminus and C-terminus assumed)", "selectivity hOT/hV1a (class symbol)": "+ (selective hV1a receptor agonist; EC50 hOT/hV1a ratio not determined due to very low agonist efficacy (<30% compared to AVP) at the hOT receptor)"}
{"compound": "CC[C@H](C)[C@@H]1NC(=O)[C@H](Cc2cccnc2)NC(=O)[C@@H](N)CSSC[C@@H](C(=O)N2CCC[C@H]2C(=O)N[C@@H](CCN)C(=O)NCC(N)=O)NC(=O)[C@H](CC(N)=O)NC(=O)[C@H](CCC(N)=O)NC1=O", "note": "[Compound 18] (H-C[3Pal]IQNCP[Dab]G-NH2; disulfide 1-6; N-terminus and C-terminus assumed)", "selectivity hOT/hV1a (class symbol)": "+ (selective hV1a receptor agonist; EC50 hOT/hV1a ratio not determined due to very low agonist efficacy (<30% compared to AVP) at the hOT receptor)"}
{"compound": "CC[C@H](C)[C@@H]1NC(=O)[C@H](Cc2cccs2)NC(=O)[C@@H](N)CSSC[C@@H](C(=O)N2CCC[C@H]2C(=O)N[C@@H](CCN)C(=O)NCC(N)=O)NC(=O)[C@H](CC(N)=O)NC(=O)[C@H](CC(N)=O)NC1=O", "note": "[Compound 36] (H-C[2Thi]INNCP[Dab]G-NH2; disulfide 1-6; N-terminus and C-terminus assumed)", "selectivity hOT/hV1a (class symbol)": "+ (selective hV1a receptor agonist; EC50 hOT/hV1a ratio not determined due to very low agonist efficacy (<30% compared to AVP) at the hOT receptor)"}
{"compound": "CCNC(=O)CC[C@@H]1NC(=O)[C@H]([C@@H](C)CC)NC(=O)[C@H](Cc2ccccc2)NC(=O)[C@@H](N)CSSC[C@@H](C(=O)N2CCC[C@H]2C(=O)N[C@@H](CCCN)C(=O)NCC(N)=O)NC(=O)[C@H](CC(N)=O)NC1=O", "note": "[Compound 20] (H-CFIE(NHEt)NCP[Orn]G-NH2; disulfide 1-6; N-terminus and C-terminus assumed)", "selectivity hOT/hV1a (class symbol)": "+ (selective hV1a receptor agonist; EC50 hOT/hV1a ratio not determined due to very low agonist efficacy (<30% compared to AVP) at the hOT receptor)"}
{"compound": "CC[C@H](C)[C@@H]1NC(=O)[C@H](Cc2ccsc2)NC(=O)[C@@H](N)CSSC[C@@H](C(=O)N2CCC[C@H]2C(=O)N[C@@H](CCN)C(=O)NCC(N)=O)NC(=O)[C@H](CC(N)=O)NC(=O)[C@H](CC(N)=O)NC1=O", "note": "[Compound 37] (H-C[3Thi]INNCP[Dab]G-NH2; disulfide 1-6; N-terminus and C-terminus assumed)", "selectivity hOT/hV1a (class symbol)": "+ (selective hV1a receptor agonist; EC50 hOT/hV1a ratio not determined due to very low agonist efficacy (<30% compared to AVP) at the hOT receptor)"}
{"compound": "CC[C@H](C)[C@@H]1NC(=O)[C@H](Cc2ccccc2)NC(=O)[C@@H](N)CSSC[C@@H](C(=O)N2CCC[C@H]2C(=O)N[C@@H](CCCNC)C(=O)NCC(N)=O)NC(=O)[C@H](CC(N)=O)NC(=O)[C@H](CC(N)=O)NC1=O", "note": "[Compound 46] (H-CFINNCP[Orn(Me)]G-NH2; disulfide 1-6; N-terminus and C-terminus assumed)", "selectivity hOT/hV1a (class symbol)": "+ (selective hV1a receptor agonist; EC50 hOT/hV1a ratio not determined due to very low agonist efficacy (<30% compared to AVP) at the hOT receptor)"}
{"compound": "CC[C@H](C)[C@@H]1NC(=O)[C@H](Cc2ccccc2)NC(=O)[C@@H](N)CSSC[C@@H](C(=O)N2CCC[C@H]2C(=O)N[C@@H](CCCN)C(=O)NCC(N)=O)NC(=O)[C@H](CC(N)=O)NC(=O)[C@H](CCC(=O)NC)NC1=O", "note": "[Compound 19] (H-CFIE(NHMe)NCP[Orn]G-NH2; disulfide 1-6; N-terminus and C-terminus assumed)", "selectivity hOT/hV1a (class symbol)": "+ (selective hV1a receptor agonist; EC50 hOT/hV1a ratio not determined due to very low agonist efficacy (<30% compared to AVP) at the hOT receptor)"}
{"compound": "CC[C@H](C)[C@@H]1NC(=O)[C@H](Cc2ccccc2)NC(=O)[C@@H](N)CSSC[C@@H](C(=O)N2CCC[C@H]2C(=O)N[C@@H](CCCN)C(=O)NCC(N)=O)NC(=O)[C@H](CC(N)=O)NC(=O)[C@H](CC(=O)NCCOCCO)NC1=O", "note": "[Compound 29] (H-CFID(X4)NCP[Orn]G-NH2; disulfide 1-6; N-terminus and C-terminus assumed)", "selectivity hOT/hV1a (class symbol)": "+ (selective hV1a receptor agonist; EC50 hOT/hV1a ratio not determined due to very low agonist efficacy (<30% compared to AVP) at the hOT receptor)"}
{"compound": "CCNC(=O)C[C@@H]1NC(=O)[C@H]([C@@H](C)CC)NC(=O)[C@H](Cc2ccccc2)NC(=O)[C@@H](N)CSSC[C@@H](C(=O)N2CCC[C@H]2C(=O)N[C@@H](CCCN)C(=O)NCC(N)=O)NC(=O)[C@H](CC(N)=O)NC1=O", "note": "[Compound 48] (H-CFID(NHEt)NCP[Orn]G-NH2; disulfide 1-6; N-terminus and C-terminus assumed)", "selectivity hOT/hV1a (class symbol)": "+ (selective hV1a receptor agonist; EC50 hOT/hV1a ratio not determined due to very low agonist efficacy (<30% compared to AVP) at the hOT receptor)"}
{"compound": "CC[C@H](C)[C@@H]1NC(=O)[C@H](Cc2ccccc2)NC(=O)[C@@H](N)CSSC[C@@H](C(=O)N2CCC[C@H]2C(=O)N[C@@H](CCCN)C(=O)NCC(N)=O)NC(=O)[C@H](CC(N)=O)NC(=O)[C@H](CCC(=O)NCC(C)C)NC1=O", "note": "[Compound 21] (H-CFIE(NHiBu)NCP[Orn]G-NH2; disulfide 1-6; N-terminus and C-terminus assumed)", "selectivity hOT/hV1a (class symbol)": "+ (selective hV1a receptor agonist; EC50 hOT/hV1a ratio not determined due to very low agonist efficacy (<30% compared to AVP) at the hOT receptor)"}
{"compound": "CC[C@H](C)[C@@H]1NC(=O)[C@H](Cc2ccccc2)NC(=O)[C@@H](N)CSSC[C@@H](C(=O)N2CCC[C@H]2C(=O)N[C@@H](CCCN)C(=O)NCC(N)=O)NC(=O)[C@H](CC(N)=O)NC(=O)[C@H](CC(=O)NC(CO)CO)NC1=O", "note": "[Compound 27] (H-CFID(NHCH(CH2OH)2)NCP[Orn]G-NH2; disulfide 1-6; N-terminus and C-terminus assumed)", "selectivity hOT/hV1a (class symbol)": "+ (selective hV1a receptor agonist; EC50 hOT/hV1a ratio not determined due to very low agonist efficacy (<30% compared to AVP) at the hOT receptor)"}
